# Laboratory results from ChEMBL document CHEMBL1201862, “PubChem BioAssay data set” (2004).
#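 96-well plates; 48 h exposure; 5 concentrations. Endpoints by linear interpolation between flanking doses. Not reached: highest tested concentration assigned. The concentration for 50% growth inhibition is given as GI50.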 Activity calls are given as the source filed them. Rule as the data show it: active = GI50 up to about 1.1 µM and inactive = higher.
# What was measured:
# Experiment in all cases: inhibition of tumour cell growth, NCI panel, 48 h
# [1] = test system: SK-OV-3
# [2] = test system: IGROV-1
# [3] = test system: NCI-H23
# [4] = test system: SK-MEL-2
# [5] = test system: MDA-MB-435
# [6] = test system: NCI-H522
# [7] = test system: HOP-92
# [8] = test system: A549
# [9] = test system: SNB-19
# [10] = test system: MDA-MB-231
# [11] = test system: SW-620
# [12] = test system: LOX IMVI
# [13] = test system: DU-145
# [14] = test system: Malme-3M
# [15] = test system: MCF7
# [16] = test system: BT-549
# [17] = test system: TK-10
# [18] = test system: T47D
# [19] = test system: NCI/ADR-RES
# [20] = test system: UO-31
Structure (SMILES),GI50 [1],GI50 [2],GI50 [3],GI50 [4],GI50 [5],GI50 [6],GI50 [7],GI50 [8],GI50 [9],GI50 [10],GI50 [11],GI50 [12],GI50 [13],GI50 [14],GI50 [15],GI50 [16],GI50 [17],GI50 [18],GI50 [19],GI50 [20]
CC(=O)Nc1ccc(-c2cc(C(=O)O)c3cc4ccccc4cc3n2)cc1,> 100 µM (inactive),> 100 µM (inactive),> 100 µM (inactive),> 100 µM (inactive),> 100 µM (inactive),> 100 µM (inactive),> 100 µM (inactive),> 100 µM (inactive),> 100 µM (inactive),> 100 µM (inactive),> 100 µM (inactive),> 100 µM (inactive),> 100 µM (inactive),> 100 µM (inactive),> 100 µM (inactive),> 100 µM (inactive),> 100 µM (inactive),> 100 µM (inactive),> 100 µM (inactive),–
Fc1cccc(Cl)c1/C=N\N=C1c2ccccc2-c2ccccc21,> 100 µM (inactive),64.3 µM (inactive),> 100 µM (inactive),> 100 µM (inactive),36 µM (inactive),> 100 µM (inactive),> 100 µM (inactive),70 µM (inactive),98.9 µM (inactive),90.4 µM (inactive),73.8 µM (inactive),> 100 µM (inactive),> 100 µM (inactive),76.7 µM (inactive),11.8 µM (inactive),> 100 µM (inactive),> 100 µM (inactive),30 µM (inactive),> 100 µM (inactive),> 100 µM (inactive)
CCCCCCCCCCCCCCCC[N+](C)(C)CCl,6.87 µM (inactive),0.585 µM (active),4.19 µM (inactive),13.3 µM (inactive),3.07 µM (inactive),–,1.17 µM (inactive),5 µM (inactive),1.66 µM (inactive),2.02 µM (inactive),2.69 µM (inactive),1.51 µM (inactive),3.78 µM (inactive),2.65 µM (inactive),2.69 µM (inactive),2.29 µM (inactive),2.25 µM (inactive),3.57 µM (inactive),20.6 µM (inactive),11.1 µM (inactive)
CCN(CC)CC[n+]1ccc2c(C)c3[nH]c4ccc(O)cc4c3c(C)c2c1,10.4 µM (inactive),6.44 µM (inactive),3.82 µM (inactive),16 µM (inactive),9.42 µM (inactive),1.96 µM (inactive),3.85 µM (inactive),1.35 µM (inactive),1.21 µM (inactive),10.6 µM (inactive),5.57 µM (inactive),10.8 µM (inactive),2.4 µM (inactive),5.83 µM (inactive),2 µM (inactive),12.7 µM (inactive),28.3 µM (inactive),2.67 µM (inactive),14.6 µM (inactive),28 µM (inactive)
CCCCNCC(=O)O[C@]1(CC)C(=O)OCc2c1cc1n(c2=O)Cc2cc3ccccc3nc2-1,0.658 µM (active),2.3 µM (inactive),0.0769 µM (active),3.14 µM (inactive),1.57 µM (inactive),0.224 µM (active),1.52 µM (inactive),0.185 µM (active),0.0542 µM (active),29.9 µM (inactive),0.0836 µM (active),0.0721 µM (active),0.0482 µM (active),2.84 µM (inactive),0.0998 µM (active),0.391 µM (active),6.15 µM (inactive),0.219 µM (active),0.0789 µM (active),0.207 µM (active)
CCOC(=O)C(NC(=O)c1ccccc1)(c1ccc(S(=O)(=O)Nc2onc(C)c2C)cc1)C(F)(F)F (centres undefined),0.495 µM (active),> 100 µM (inactive),> 100 µM (inactive),> 100 µM (inactive),> 100 µM (inactive),–,> 100 µM (inactive),> 100 µM (inactive),> 100 µM (inactive),> 100 µM (inactive),> 100 µM (inactive),> 100 µM (inactive),> 100 µM (inactive),> 100 µM (inactive),> 100 µM (inactive),> 100 µM (inactive),> 100 µM (inactive),> 100 µM (inactive),> 100 µM (inactive),> 100 µM (inactive)
S=C(/N=C1/NCC(CN2CCN(c3ccccc3)CC2)O1)Nc1ccccc1 (centres undefined),> 100 µM (inactive),> 100 µM (inactive),29.3 µM (inactive),35.6 µM (inactive),70.8 µM (inactive),> 100 µM (inactive),92.3 µM (inactive),61 µM (inactive),> 100 µM (inactive),35.9 µM (inactive),52.7 µM (inactive),25 µM (inactive),56.9 µM (inactive),> 100 µM (inactive),38.4 µM (inactive),37.5 µM (inactive),> 100 µM (inactive),29.7 µM (inactive),> 100 µM (inactive),11.6 µM (inactive)
COC(=O)/C=C(/C(=O)OC)c1c(C)c(C)c2c(C)cc(C)cc(C)c1-2,18.2 µM (inactive),37.9 µM (inactive),23.8 µM (inactive),26.2 µM (inactive),4.6 µM (inactive),12.2 µM (inactive),21.2 µM (inactive),20.6 µM (inactive),58.7 µM (inactive),18.1 µM (inactive),17.1 µM (inactive),28.7 µM (inactive),36.9 µM (inactive),28.4 µM (inactive),25.2 µM (inactive),22.4 µM (inactive),55.1 µM (inactive),80.9 µM (inactive),15.2 µM (inactive),13.6 µM (inactive)
CCOP(=O)(OCC)/C(C#N)=C/c1cccn1CC(C)C,> 100 µM (inactive),> 100 µM (inactive),> 100 µM (inactive),> 100 µM (inactive),> 100 µM (inactive),81.8 µM (inactive),> 100 µM (inactive),> 100 µM (inactive),> 100 µM (inactive),57.3 µM (inactive),> 100 µM (inactive),> 100 µM (inactive),> 100 µM (inactive),> 100 µM (inactive),> 100 µM (inactive),> 100 µM (inactive),> 100 µM (inactive),36.6 µM (inactive),> 100 µM (inactive),61.4 µM (inactive)
CC(=O)OC1CC2(C)C(OC(C)=O)CC1C2(C)C (centres undefined),> 100 µM (inactive),> 100 µM (inactive),> 100 µM (inactive),–,> 100 µM (inactive),> 100 µM (inactive),> 100 µM (inactive),> 100 µM (inactive),> 100 µM (inactive),> 100 µM (inactive),> 100 µM (inactive),> 100 µM (inactive),> 100 µM (inactive),> 100 µM (inactive),> 100 µM (inactive),> 100 µM (inactive),> 100 µM (inactive),> 100 µM (inactive),> 100 µM (inactive),> 100 µM (inactive)
O=C(C1OC1c1ccc(F)cc1)C12CC3CC(CC(C3)C1)C2 (centres undefined),31.1 µM (inactive),19 µM (inactive),22.1 µM (inactive),12.9 µM (inactive),11.9 µM (inactive),17.4 µM (inactive),20.3 µM (inactive),21 µM (inactive),33.4 µM (inactive),26.5 µM (inactive),17.2 µM (inactive),2.85 µM (inactive),34 µM (inactive),21.3 µM (inactive),22.2 µM (inactive),15.6 µM (inactive),35.2 µM (inactive),25.1 µM (inactive),21.2 µM (inactive),20.9 µM (inactive)
NCCCN1CCN(CCCNc2ccc3nnn4c5ccccc5c(=O)c2c34)CC1,57.4 µM (inactive),13.5 µM (inactive),14.8 µM (inactive),18.7 µM (inactive),21.6 µM (inactive),11.3 µM (inactive),18.8 µM (inactive),28.2 µM (inactive),12.8 µM (inactive),13.1 µM (inactive),11 µM (inactive),8.32 µM (inactive),14.9 µM (inactive),18.8 µM (inactive),16.2 µM (inactive),5.81 µM (inactive),24.9 µM (inactive),30.2 µM (inactive),55 µM (inactive),22.1 µM (inactive)
Cc1c(C(=O)OCc2ccccc2)[n+]([O-])c2cc(F)c(F)cc2[n+]1[O-],–,1.73 µM (inactive),2.37 µM (inactive),1.67 µM (inactive),2.15 µM (inactive),2 µM (inactive),2.21 µM (inactive),3.2 µM (inactive),2.08 µM (inactive),1.8 µM (inactive),0.64 µM (active),0.421 µM (active),2.41 µM (inactive),1.99 µM (inactive),2.31 µM (inactive),1.83 µM (inactive),16.3 µM (inactive),1.51 µM (inactive),3.22 µM (inactive),1.79 µM (inactive)
C[n+]1c(-c2ccc(/C=N\N3CCN(/N=C/c4ccc(-c5cn6ccsc6[n+]5C)cc4)CC3)cc2)cn2ccsc21,8.04 µM (inactive),30.7 µM (inactive),30.1 µM (inactive),31.8 µM (inactive),26.7 µM (inactive),18.1 µM (inactive),42.3 µM (inactive),44.1 µM (inactive),38.4 µM (inactive),20.7 µM (inactive),32.1 µM (inactive),60.8 µM (inactive),23.3 µM (inactive),–,29.9 µM (inactive),17.1 µM (inactive),35.7 µM (inactive),12.7 µM (inactive),> 100 µM (inactive),89.5 µM (inactive)
